Legend:
[1] = tested on: S. mansoni newly transformed schistosomula (NTS); assay: In vitro testing on Schistosoma mansoni newly transformed schistosomula (NTS), viability score; format: cell-based; conditions: 72 h
Description: Assays were prepared according to the laboratory SOP for the lab of Dr. Jennifer Keiser (Swiss Tropical and Public Health Institute, Basel). Harvested S. mansoni cercariae (Liberian strain) obtained from infected Biomphalaria glabrata snails were mechanically transformed into newly transformed schistosomula (NTS) following standard procedures. Briefly, snails were placed under light in the morning to stimulate cercarial shedding. The cercarial suspension was collected, cooled for 30 minutes, and then vigorously pipetted (30×) and vortexed (3 minutes). The suspension was then placed in the incubator (37° C. and 5% CO2) for 30 minutes, and the vortexing and pipetting steps were repeated. The transformation was complete at this point, and the tails were separated from the heads by rinsing three times with cold HBSS. NTS were then incubated overnight in culture medium overnight and used the next day.
The original stock compounds (which were not already dissolved) were dissolved in dimethyl sulfoxide (DMSO) to a concentration of 10 mM. 100 NTS were placed in each well of a 96-well plate with culture medium, and the test compound for a final well volume of 250 μl. […] NTS incubated with no more than 1% DMSO served as control. NTS were kept in an incubator at 37° C. and 5% CO2 for up to 72 hours. After 72 hours, the condition of the NTS was microscopically evaluated using a scale from 3 (normal activity and no tegument alteration) to 0 (dead, completely granulated).

[2] = tested on: L. donovani promastigotes; assay: Antileishmanial Alamar Blue assay on promastigotes; format: cell-based, Leishmania donovani; conditions: for X more potent than Pentamidine: L. donovani, ratio of molar IC50 to Pentamidine; for L. donovani IC50 / IC50: promastigotes, 48 hours, Alamar Blue; for IC50: read-out: L. donavani IC50
In short: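 L. donovani promastigotes in RPMI 1640 with 10% FCS, from 3-day culture, were set at 5×10^5/mL and exposed to compound (50-3.1 μg/mL) for 48 hours at 26° C. Growth read by Alamar Blue fluorescence (ex 544/em 590 nm); IC50 from percent growth versus concentration.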

[3] = tested on: Plasmodium falciparum W2 clone (Indochina, chloroquine-resistant); assay: In vitro antimalarial assay, chloroquine-resistant W2 clone; format: cell-based; conditions: W2 clone; for IC50: converted with molecular weight, read-out: P. falciparum W2 IC50; for X more potent than chloroquine: molar IC50 ratio versus chloroquine
Description: (§1) The compounds were assayed for in vitro antimalarial activity against the W2 clone and D6 clone of the pathogenic Plasmodium falciparum. The strains of P. falciparum were obtained from the Division of Experimental Therapeutics, Walter Reed Army Institute of Research, Washington D.C. Strains of Sierra Leon D6 and Indochina W2 are chloroquine-sensitive and chloroquine-resistant, respectively. The parasite was grown in type A human RBCs and, two strains subcultured daily with fresh medium and blood cells. On the day of the assay, a suspension of infected blood cells (2% parasitemia and 2% hematocrit) was prepared using type A human red blood cells. Assays were performed by standard 96-well flat-bottomed microplate methods and done in duplicate at different concentrations. IC50 values were obtained from the dose curves. Artemisinin and chloroquine were included in each assay as the drug controls, and DMSO was used as vehicle control. The whole protocol was developed based on the published method of Makler. The cytotoxicity assays were also performed in parallel against the Vero cells, and the selectivity index was measured. A selectivity index of >9 was considered to indicate a lead for further development of antimalarial drug.

[4] = tested on: Plasmodium falciparum D6 clone (Sierra Leon, chloroquine-sensitive); assay: In vitro antimalarial assay, chloroquine-sensitive D6 clone; format: cell-based; conditions: D6 clone; for IC50: converted with molecular weight, read-out: P. falciparum D6 IC50; for X more potent than chloroquine: molar IC50 ratio versus chloroquine
Description: as §1

[5] = tested on: Cryptococcus neoformans ATCC 90113; assay: Antimicrobial microdilution assay against Cryptococcus neoformans (modified CLSI/NCCLS, optical density); format: cell-based; conditions: for X more potent than Amphotericin B: C. neoformans, ratio of molar IC50 to Amphotericin B; for C. neoformans IC50 / IC50: in vitro, C. neoformans ATCC 90113; for IC50: read-out: C. neoformans IC50 (mol/L)
In short: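 Broth microdilution (modified CLSI) in RPMI pH 6.0, samples serially diluted in 20% DMSO/saline and tested in duplicate, growth followed by OD630 before and after incubation. MFC is the lowest concentration giving no growth when 5 μL from clear wells is plated on agar.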

[6] = tested on: C. glabrata ATCC 90030; assay: Antifungal broth dilution assay against C. glabrata (modified CLSI); format: cell-based, Candida glabrata
In short: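 Modified CLSI broth microdilution with OD monitoring before and after incubation at 35 °C: Candida in RPMI 1640/MOPS pH 6.0, 1.5×10^3 CFU/ml, 46-50 h; Staphylococcus in cation-adjusted Mueller-Hinton pH 7.3, 5.0×10^5 CFU/ml, 16-20 h. IC50 from curve fit; MIC is the lowest concentration with no growth; MFC/MBC from subculture.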

Row | Compound | Effect at 72 h (%) ([1]; NTS S. mansoni at 10 μM) | Effect at 72 h (%) ([1]; NTS S. mansoni, 33 μM) | X more potent than Pentamidine [2] | L. donovani IC50 [2] | IC50 [2] | P. falciparum W2 IC50 [3] | IC50 [3] | X more potent than chloroquine [3] | P. falciparum D6 IC50 [4] | IC50 [4] | X more potent than chloroquine [4] | X more potent than Amphotericin B [5] | C. neoformans IC50 [5] | IC50 [5] | C. glabrata IC50 ([6]; in vitro) | IC50 ([6]; in vitro, converted with molecular weight) | X more potent than Amphotericin B ([6]; molar IC50 ratio versus amphotericin B)
1 | [Cl-].[Cl-].[Fe+2].c1ccc(CN2CCCN3CCN(CCCN(Cc4ccccc4)CC3)CC2)cc1 [NS08, Fe(Bn2Bcyclam)Cl2] | 51.72% | 18.02% | 1.66 | 1.71 µg/mL | 3210 nM | 0.2271 µg/mL | 426 nM | 1.59 | 0.1726 µg/mL | 324 nM | 0.11 |  |  |  |  |  | 
2 | c1ccc(CN2CCCN3CCN(CCCN(Cc4ccccc4)CC3)CC2)cc1 [JGL45, Bn2Bcyclam] | 44.83% | 81.08% | 0.55 | 3.94 µg/mL | 9690 nM | 0.1772 µg/mL | 436 nM | 1.56 | 1.0894 µg/mL | 2680 nM | 0.01 |  |  |  |  |  | 
3 | [Mn(Bn1Me1-CB-Cyclam)Cl2] [NS11] |  | 5.41% |  |  |  | 0.5300 µg/mL | 1160 nM | 0.58 | 0.6142 µg/mL | 1350 nM | 0.03 | 0.02 | 5.038 µg/mL | 11000 nM |  |  | 
4 | CC(=O)[O-].F[P-](F)(F)(F)(F)F.[Cu+2].c1ccc(CN2CCN3CCN(CC2)CCN(Cc2ccccc2)CC3)cc1 [RM58] |  | 5.41% |  |  |  | 0.2015 µg/mL | 312 nM | 2.18 | 0.0947 µg/mL | 147 nM | 0.25 |  |  |  |  |  | 
5 | CC(=O)[O-].CN1CCCN2CCN(CCCN(Cc3ccccc3)CC2)CC1.F[P-](F)(F)(F)(F)F.[Cu+2] [RM56A, [Cu(Bn1Me1Bcyclam)(OAc)]PF6] |  | 18.02% | 0.10 | 33.32 µg/mL | 55700 nM | 0.6747 µg/mL | 1130 nM | 0.60 | 0.7145 µg/mL | 1200 nM | 0.03 |  |  |  |  |  | 
6 | CC(=O)[O-].F[P-](F)(F)(F)(F)F.[Cu+2].c1ccc(CN2CCCN3CCN(CCCN(Cc4ccccc4)CC3)CC2)cc1 [RM37, [Cu(Bn2Bcyclam)(OAc)]PF6] | 24.14% | 100.00% | 0.58 | 6.17 µg/mL | 9150 nM | 0.5451 µg/mL | 809 nM | 0.84 | 0.2855 µg/mL | 424 nM | 0.09 |  |  |  |  |  | 
7 | [Cu3(tris-SB-Cyclams)(OAc)3][PF6]3•1.5NH4PF6 [CDG027] |  | 11.71% |  |  |  |  |  |  |  |  |  | 0.34 | 1.280 µg/mL | 696 nM | 1.630 µg/mL | 886 nM | 1.60

From US12139481B2, “Compositions comprising macrocycle derivatives incorporating bridged macrocycles and methods of producing and using same” (Southwestern Oklahoma State University, priority 2015, dated 2024)
